Laboratory results published in patent US20150011528A1, “PHENYLIMIDE-CONTAINING BENZOTHIAZOLE DERIVATIVE OF ITS SALT AND PHARMACEUTICAL COMPOSITION COMPRISING THE SAME” (YUHAN CORPORATION, priority 2011, published 2015).

Columns and labels:
Assay type in all cases: cell-based
[1] = biological target: T1, interaction between the KRS protein and the laminin receptor (LR) (Homo sapiens, UniProt Q15046); experiment: Yeast Two Hybrid inhibition of the interaction between the KRS protein and the laminin receptor (LR); details: 1 μL of 20 mM DMSO solution per 200 μL culture; 30° C., 6 days; absorbance 540 nm; non-treated control = 100%
T1 construct: expressed in transfected cells; host or cells: yeast EGY/SH cells
Method: The inhibitory activity against the interaction between the KRS protein and the laminin receptor (LR) was evaluated according to the Yeast Two Hybrid method described in WO2011/056021. According to the disclosures of WO2011/056021, we prepared a vector obtained by cloning the KRS gene in the LexA vector (Clontech) and a vector obtained by cloning the LR gene in the B42 vector (Clontech). The yeast cells, i.e., EGY/SH cells were co-transformed with the LexA-KRS vector and the B42-LR vector. The co-transformation was carried out using the Yeastmaker yeast transformation system2 kit (Clontech), according to the manufacturer's instruction. […] The cultured yeast cells were diluted with the said galactose medium, until the absorbance at 540 nm attains to about 0.15 to 0.2. The diluted culture (200 μL), containing the yeast cells, was added to each well of a 96-well plate. Each test compound was dissolved in dimethyl sulfoxide at a concentration of 20 mM and then the resulting solutions (1 μL) were added to each well. The plate was cultured at 30° C. for 6 days and then the absorbance of the each well was measured at 540 nm.
(§1) And also, specificity of the inhibitory activity was evaluated, using the yeast cells cotransformed with the LexA-KRS vector and the B42-AIMP2 vector; and the yeast cells co-transformed with the LexA-KRS vector and the B42-AIMP3 vector, which were respectively prepared according to WO2011/056021. The co-transformation was carried out using the Yeastmaker yeast transformation system2 kit (Clontech), according to the manufacturer's instruction. […] The cultured yeast cells were diluted with the said galactose medium, until the absorbance at 540 nm attains to about 0.15 to 0.2. The diluted culture (200 μL), containing the yeast cells, was added to each well of a 96-well plate. Each test compound was dissolved in dimethyl sulfoxide at a concentration of 20 mM and then the resulting solutions (1 μL) were added to each well. The plate was cultured at 30° C. for 6 days and then the absorbance of each well was measured at 540 nm. The respective yeast cell proliferation rates (%) in the treated samples were calculated in comparison with those of the non-treated control (100%) and the results thereof are shown in Table 1 below.
When KRS is bound to LR, the trans-activation domain is come close to the DNA-binding domain and the genes for synthesizing essential amino acids are expressed, which leads to normal growth of the transformed yeasts, thereby increasing the absorbance.

[2] = biological target: T2, binding between KRS and AIMP2 (Homo sapiens, UniProt Q15046); experiment: Yeast Two Hybrid specificity test, LexA-KRS / B42-AIMP2 co-transformed yeast cells; details: 1 μL of 20 mM DMSO solution per 200 μL culture; 30° C., 6 days; absorbance 540 nm; non-treated control = 100%
T2 construct: expressed in transfected cells; host or cells: yeast cells (co-transformed)
Method: as §1

[3] = biological target: T3, binding between KRS and AIMP3 (Homo sapiens, UniProt Q15046); experiment: Yeast Two Hybrid specificity test, LexA-KRS / B42-AIMP3 co-transformed yeast cells; details: 1 μL of 20 mM DMSO solution per 200 μL culture; 30° C., 6 days; absorbance 540 nm; non-treated control = 100%
T3 construct: expressed in transfected cells; host or cells: yeast cells (co-transformed)
Method: as §1

A549 cells = experiment: Cell Migration Assay (transwell, laminin); details: Homo sapiens, laminin 10 μg/mL in lower well, test compounds 0.39˜100 μM, 6 hours at 37° C.
Method: Cell migration was measured with a 24-well transwell having a polycarbonate membrane (8.0 μm pore size, Costar) at the bottom of the upper chamber. Each lower well was treated with laminin (10 μg/mL) and test compounds (0.39˜100 μM) along with a serum-free RPMI1640 medium. A549 cells (Korean Cell Line Bank) were suspended in a serum-free RPMI1640 medium at a concentration of 1×10^6 cells/mL and then the test compounds were added thereto at the indicated concentrations. Each resulting solution (100 μL) was added to the upper chamber. The cells were cultured at 37° C. for 6 hours in a CO2 incubator. The upper chamber was taken out and then the cells were fixed with PBS containing 70% methyl alcohol for 10 minutes, followed by washing with PBS twice. The cells were stained with hematoxylin (Sigma) for 10 minutes and then washed with distilled water. The non-migrated cells were removed from the upper portion of the polycarbonate membrane with a cotton swab. The membranes were excised and separated from the chamber, and then mounted to a slide using a gel mount reagent (Biomeda, USA). The migrated cells (attached to the lower face of the membrane) were counted at three randomly selected sites under a microscope (×20). The cell counting was performed with the Image J program. From the counted cell numbers, each IC50 value was calculated by non-linear regression curve fit using the “GraphPad Prism” program.
The cells are pulled by laminin residing in the lower chamber and then passed through the polycarbonate membrane, so as to attach to the lower face of the membrane.

T2 sequence (Q15046 whole entry): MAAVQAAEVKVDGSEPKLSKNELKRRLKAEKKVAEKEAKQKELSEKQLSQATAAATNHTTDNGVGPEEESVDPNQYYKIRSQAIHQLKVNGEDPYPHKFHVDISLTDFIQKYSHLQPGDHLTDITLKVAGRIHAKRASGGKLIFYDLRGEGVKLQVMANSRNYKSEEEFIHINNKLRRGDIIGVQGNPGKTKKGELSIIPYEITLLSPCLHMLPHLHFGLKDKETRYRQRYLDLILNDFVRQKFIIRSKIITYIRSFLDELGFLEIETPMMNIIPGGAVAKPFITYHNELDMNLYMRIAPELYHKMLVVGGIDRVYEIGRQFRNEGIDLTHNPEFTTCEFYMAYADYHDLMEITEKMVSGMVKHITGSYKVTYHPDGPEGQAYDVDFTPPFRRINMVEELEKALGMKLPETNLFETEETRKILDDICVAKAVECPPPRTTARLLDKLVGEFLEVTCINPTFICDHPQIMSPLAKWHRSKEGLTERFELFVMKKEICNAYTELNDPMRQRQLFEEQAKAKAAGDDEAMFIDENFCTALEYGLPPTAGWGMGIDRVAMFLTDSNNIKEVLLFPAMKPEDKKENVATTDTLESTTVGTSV
T1 sequence (Q15046 whole entry): as above
T3 sequence (Q15046 whole entry): as above

Yeast cell proliferation rates KRS-LR (%) [1]	Yeast cell proliferation rates KRS-AIMP2 (%) [2]	Yeast cell proliferation rates KRS-AIMP3 (%) [3]	IC50 (A549 cells)	SMILES
12.3%	92.5%	100.3%	–	CC(C(=O)O)n1c(=NC(=O)c2cccc(Cl)c2)sc2c(F)c(F)ccc21 (centres unmarked) [Example 337, 2-(2-((3-chlorobenzoyl)imino)-6,7-difluorobenzo[d]thiazol-3(2H)-yl)propionic acid]
27.8%	116.6%	98.5%	–	Cc1ccc(C(=O)N=c2sc3ccc(F)cc3n2C(C)C(=O)O)cc1 (centres unmarked) [Example 91, 2-[5-fluoro-2-(4-methylbenzoylimino)benzo[d]thiazol-3(2H)-yl]propionic acid]
28.2%	89.4%	99.5%	–	Cc1cccc2c1sc(=NC(=O)c1cccc(Cl)c1)n2C(C)C(=O)O (centres unmarked) [Example 353, 2-(2-((3-chlorobenzoyl)imino)-7-methylbenzo[d]thiazol-3(2H)-yl)propionic acid]
22.1%	97.2%	104.4%	–	CC(C(=O)O)n1c(=NC(=O)c2cccc(C(F)(F)F)c2)sc2ccc(F)cc21 (centres unmarked) [Example 355, 2-(5-fluoro-2-((3-(trifluoromethyl)benzoyl)imino)benzo[d]thiazol-3(2H)-yl)propionic acid]
17.4%	84.6%	84.1%	–	CCC(C(=O)O)n1c(=NC(=O)c2ccc(C)cc2)sc2cccc(OC)c21 (centres unmarked) [Example 8, 2-{4-methoxy-2-[(4-methylbenzoyl)imino]benzo[d]thiazol-3(2H)-yl}butanoic acid]
21.9%	101.6%	107.0%	–	CC(C(=O)O)n1c(=NC(=O)c2cccc(C(F)(F)F)c2)sc2ccc(Cl)cc21 (centres unmarked) [Example 359, 2-(5-chloro-2-((3-(trifluoromethyl)benzoyl)imino)benzo[d]thiazol-3(2H)-yl)propionic acid]
36.1%	97.1%	90.3%	–	CCC(C(=O)O)n1c(=NC(=O)c2cccc(F)c2)sc2c(Cl)cccc21 (centres unmarked) [Example 543, 2-(7-chloro-2-((3-fluorobenzoyl)imino)benzo[d]thiazol-3(2H)-yl)butanoic acid]
49.3%	99.0%	93.0%	–	CCC(C(=O)O)n1c(=NC(=O)c2cccc(F)c2)sc2c(F)c(F)ccc21 (centres unmarked) [Example 582, 2-(6,7-difluoro-2-((3-fluorobenzoyl)imino)benzo[d]thiazol-3(2H)-yl)butanoic acid]
30.2%	103.0%	106.4%	–	CCC(C(=O)O)n1c(=NC(=O)c2cccc(Cl)c2)sc2c(C)cccc21 (centres unmarked) [Example 354, 2-(2-((3-chlorobenzoyl)imino)-7-methylbenzo[d]thiazol-3(2H)-yl)butanoic acid]
24.7%	99.6%	99.3%	–	CC(C(=O)O)n1c(=NC(=O)c2cccc(Cl)c2)sc2c(F)c(F)c(F)cc21 (centres unmarked) [Example 416, 2-(2-((3-chlorobenzoyl)imino)-5,6,7-trifluorobenzo[d]thiazol-3(2H)-yl)propionic acid]
29.6%	91.0%	86.1%	–	CCOc1ccc2c(c1)sc(=NC(=O)c1ccc(F)cc1)n2C(CC)C(=O)O (centres unmarked) [Example 476, 2-(6-ethoxy-2-((4-fluorobenzoyl)imino)benzo[d]thiazol-3(2H)-yl)butanoic acid]
10.8%	101.6%	105.3%	–	CCC(C(=O)O)n1c(=NC(=O)c2ccc(C)cc2)sc2c(F)c(F)ccc21 (centres unmarked) [Example 335, 2-(6,7-difluoro-2-((4-methylbenzoyl)imino)benzo[d]thiazol-3(2H)-yl)butanoic acid]
11.7%	99.0%	102.8%	–	CCC(C(=O)O)n1c(=NC(=O)c2ccc(C)cc2)sc2c(C)cccc21 (centres unmarked) [Example 344, 2-(7-methyl-2-((4-methylbenzoyl)imino)benzo[d]thiazol-3(2H)-yl)butanoic acid]
34.3%	96.7%	93.2%	–	CC(C(=O)O)n1c(=NC(=O)c2ccc(F)c(F)c2)sc2cc(F)c(F)cc21 (centres unmarked) [Example 463, 2-(2-((3,4-difluorobenzoyl)imino)-5,6-difluorobenzo[d]thiazol-3(2H)-yl)propionic acid]
34.1%	99.0%	114.8%	–	CCC(C(=O)O)n1c(=NC(=O)c2ccc(C)cc2)sc2cc3c(cc21)OCO3 (centres unmarked) [Example 237, 2-(6-((4-methylbenzoyl)imino)-[1,3]dioxolo[4′,5′:4,5]benzo[1,2-d]thiazol-7(6H)-yl)butanoic acid]
36.9%	106.4%	100.1%	–	CCOc1ccc2c(c1)sc(=NC(=O)c1ccc(C)cc1)n2C(CC)C(=O)O (centres unmarked) [Example 7, 2-{6-ethoxy-2-[(4-methylbenzoyl)imino]benzo[d]thiazol-3(2H)-yl}butanoic acid]
–	–	–	87 µM	Cc1ccc2c(c1)sc(=NC(=O)c1cccc(C(F)(F)F)c1)n2C(C)C(=O)O (centres unmarked) [Example 195, 2-(6-methyl-2-((3-(trifluoromethyl)benzoyl)imino)benzo[d]thiazol-3(2H)-yl)propionic acid]
–	–	–	41 µM	CCC(C(=O)O)n1c(=NC(=O)c2cc(Cl)cc(Cl)c2)sc2cc(F)c(F)cc21 (centres unmarked) [Example 468, 2-(2-((3,5-dichlorobenzoyl)imino)-5,6-difluorobenzo[d]thiazol-3(2H)-yl)butanoic acid]

SMILES	Yeast cell proliferation rates KRS-LR (%) [1]	Yeast cell proliferation rates KRS-AIMP2 (%) [2]	Yeast cell proliferation rates KRS-AIMP3 (%) [3]	IC50 (A549 cells)
CCC(C(=O)O)n1c(=NC(=O)c2ccc(OC)cc2)sc2cc(OC(F)(F)F)ccc21 (centres unmarked) [Example 507]	45.9%	99.3%	99.0%	–
CCC(C(=O)O)n1c(=NC(=O)c2ccc(OC)cc2)sc2c(F)cccc21 (centres unmarked) [Example 533]	39.0%	94.8%	98.3%	–
CCC(C(=O)O)n1c(=NC(=O)c2cccc(OC)c2)sc2c(F)cccc21 (centres unmarked) [Example 532]	43.7%	98.6%	97.3%	–
CCC(C(=O)O)n1c(=NC(=O)c2ccc(OC)cc2)sc2c(F)c(F)ccc21 (centres unmarked) [Example 585]	46.3%	95.8%	84.0%	–
